Laboratory results published in patent publication US20240139221A1, “TREATMENT OF HPV-INDUCED NEOPLASIA” (priority 2022, published 2024).
Where two headings read alike, the source gives them in different places.

Tests used:
[1] = Tablet stability study (purity by HPLC); format: physicochemical
Description: Tablets were prepared using the excipients and excipient ratios shown in the first column of the following tables. The tablets were then stored under the conditions indicated and periodically sampled and tested for purity by HPLC.

[2] = Approximate solubility in solvents at 25° C. and 50° C., visual observation; format: physicochemical; settings: thermodynamic from solid
Description: The maximum volume of each solvent added was 1 mL. Approximate solubility was determined by visual observation.
Maximum volume of each solvent added was 1 mL. Approximate solubility was determined by visual observation.

[3] = Hygroscopicity by DVS at 25° C.; format: physicochemical; settings: DVS 25° C.; for D. (%) Cycle 1: Desorption cycle 1; for D. (%) Cycle 2: Desorption cycle 2; for S. (%) Cycle 1: Sorption cycle 1; for S. (%) Cycle 2: Sorption cycle 2
Description: Hygroscopicity was investigated by DVS at 25° C., using the following method: […]

[4] = Solubility in buffers, water and simulated vaginal fluid at 37° C.; settings: for solubility at 0.5 h / solubility at 2 h: 37 °C, thermodynamic from solid; for pH of solution at 2 hrs: 37° C.
Description: About 4 mg of Compound I Pattern 1 was added into 2 mL of buffer solution.
(§1) Solubility was tested in five media, pH 3.0 citrate buffer, pH 4.5 acetate buffer, pH 6.8 phosphate buffer, water, simulated vaginal fluid (pH 4.2) at 37° C. for 0.5 h and 2 h.
The salt amount used is equivalent to 10 mg anhydrous free base. […] The obtained clear solutions were analyzed by pH meter for pH, and solubility was determined by observation.
as §1

[5] = Bulk stability (accelerated stability, one week; HPLC and XRPD)
Description: Bulk stability: Accelerated stability experiments were conducted at 25° C./92% RH and 40° C./75% RH in an open container, 60° C. in a tight container for one week.
Samples were characterized by XRPD and HPLC and inspected for color change.
Accelerated stability experiments were conducted at 25° C./92% RH in an open container, at 40° C./75% RH in an open container, and at 60° C. in a tight container for one week.

[6] = Behavior under compression, grinding simulation and granulation simulation (XRPD); format: physicochemical
Description: About 10 mg of Compound I monofumarate Pattern 1 (Example 7) was compressed for 5 minutes at 10 MPa with a hydraulic press. XRPD characterization was performed to investigate the polymorphic behavior under compression.
About 10 mg of Compound I monofumarate Pattern 1 (Example 7) was ground manually with a mortar and pestle for 5 min. Form transformation and degree of crystallinity was evaluated by XRPD.
Water or ethanol was added drop wise to about 10 mg of Compound I monofumarate Pattern 1 (Example 7) until solids were wetted sufficiently. The samples were ground manually with a mortar and pestle for 3 minutes. Samples are dried under ambient condition for 10 min. Form transformation and degree of crystallinity were evaluated by XRPD.

[7] = excipients PC (7.5%) + MCC (91.46%) + MgS (1%)
[8] = excipients PC (7.5%) + Mannitol (91.46%) + MgS (1%)
[9] = excipients PEO-15 (25%) + MCC (74%) + MgS (1%)
[10] = excipients PEO-15 (25%) + Mannitol (74%) + MgS (1%)
[11] = pH 4.2, fassgf or other biorelevant
[12] = 25° C., 92% RH, open container, one week
[13] = 40° C., 75% RH, open container, one week
[14] = 60° C., tight container, one week
[15] = ground manually with mortar and pestle for 5 min

With CCOC(=O)[C@H](C)NP(=O)(COCCn1cnc2c(OC)nc(N)nc21)OCc1ccccc1.O=C(O)/C=C/C(=O)O (mixture of isomers) [Compound I monofumarate, (±)-(2S)-Ethyl-2-((((2-(2-amino-6-methoxy-9H-purin-9-yl)-ethoxy)-methyl)-(benzyloxy)-phosphoryl)-amino)-propionate monofumarate] the “purity by HPLC, 0 months” value [1, 7] was 99.81, the “purity by HPLC, 1 month 25 C./60% RH” value [1, 7] was 98.04 and the “purity by HPLC, 1 month 40 C./75% RH” value [1, 7] was 84.92. For the same compound, the “purity by HPLC, 0 months” value [1, 8] was 99.61, the “purity by HPLC, 1 month 25 C./60% RH” value [1, 8] was 98.77 and the “purity by HPLC, 1 month 40 C./75% RH” value [1, 8] was 85.26. For the same compound, the “purity by HPLC, 0 months” value [1, 9] was 99.03, the “purity by HPLC, 1 month 25 C./60% RH” value [1, 9] was 97.76 and the “purity by HPLC, 1 month 40 C./75% RH” value [1, 9] was 83.13. The “purity by HPLC, 0 months” value [1, 10] was 97.95, the “purity by HPLC, 1 month 25 C./60% RH” value [1, 10] was 97.04 and the “purity by HPLC, 1 month 40 C./75% RH” value [1, 10] was 87.09. It also gave a solubility ([2]; 25 °C, organic solvent or mixture, Table 14, ACN, 25° C., read-out: Solubility (mg/mL) 25° C.) of 20 to 25 mg/mL, a solubility ([2]; 25 °C, organic solvent or mixture, Table 14, Acetone, 25° C., read-out: Solubility (mg/mL) 25° C.) of 50 to 100 mg/mL and a solubility ([2]; 25 °C, organic solvent or mixture, Table 14, DCM, 25° C., read-out: Solubility (mg/mL) 25° C.) of less than 2 mg/mL. For the same compound, the solubility ([2]; 25 °C, organic solvent or mixture, Table 14, EA, 25° C., read-out: Solubility (mg/mL) 25° C.) was less than 2 mg/mL, the solubility ([2]; 25 °C, organic solvent or mixture, Table 14, EtOH, 25° C., read-out: Solubility (mg/mL) 25° C.) was greater than 100 mg/mL and the solubility ([2]; 25 °C, organic solvent or mixture, Table 14, Heptanes, 25° C., read-out: Solubility (mg/mL) 25° C.) was less than 2 mg/mL. It also gave a solubility ([2]; 25 °C, organic solvent or mixture, Table 14, IPA, 25° C., read-out: Solubility (mg/mL) 25° C.) of 50 to 100 mg/mL, a solubility ([2]; 25 °C, organic solvent or mixture, Table 14, IPAc, 25° C., read-out: Solubility (mg/mL) 25° C.) of less than 2 mg/mL and a solubility ([2]; 25 °C, organic solvent or mixture, Table 14, MEK, 25° C., read-out: Solubility (mg/mL) 25° C.) of 20 to 25 mg/mL. The solubility ([2]; 25 °C, organic solvent or mixture, Table 14, MTBE, 25° C., read-out: Solubility (mg/mL) 25° C.) was less than 2 mg/mL, the solubility ([2]; 25 °C, organic solvent or mixture, Table 14, MeOH, 25° C., read-out: Solubility (mg/mL) 25° C.) was greater than 100 mg/mL and the solubility ([2]; 25 °C, organic solvent or mixture, Table 14, THF, 25° C., read-out: Solubility (mg/mL) 25° C.) was greater than 100 mg/mL. It also gave a solubility ([2]; 25 °C, organic solvent or mixture, Table 14, Toluene, 25° C., read-out: Solubility (mg/mL) 25° C.) of less than 2 mg/mL, a solubility ([2]; 25 °C, water, Table 14, Water, 25° C., read-out: Solubility (mg/mL) 25° C.) of 14 to 17 mg/mL and a solubility ([2]; 50 °C, organic solvent or mixture, Table 14, ACN, 50° C., read-out: Solubility (mg/mL) 50° C.) of 20 to 33 mg/mL. For the same compound, the solubility ([2]; 50 °C, organic solvent or mixture, Table 14, Acetone, 50° C., read-out: Solubility (mg/mL) 50° C.) was 125 to 167 mg/mL, the solubility ([2]; 50 °C, organic solvent or mixture, Table 14, DCM, 50° C., read-out: Solubility (mg/mL) 50° C.) was less than 10 mg/mL and the solubility ([2]; 50 °C, organic solvent or mixture, Table 14, EA, 50° C., read-out: Solubility (mg/mL) 50° C.) was less than 10 mg/mL. For the same compound, the solubility ([2]; 50 °C, organic solvent or mixture, Table 14, EtOH, 50° C., read-out: Solubility (mg/mL) 50° C.) was 250 to 500 mg/mL, the solubility ([2]; 50 °C, organic solvent or mixture, Table 14, Heptanes, 50° C., read-out: Solubility (mg/mL) 50° C.) was less than 10 mg/mL and the solubility ([2]; 50 °C, organic solvent or mixture, Table 14, IPA, 50° C., read-out: Solubility (mg/mL) 50° C.) was 71 to 84 mg/mL. For the same compound, the solubility ([2]; 50 °C, organic solvent or mixture, Table 14, IPAc, 50° C., read-out: Solubility (mg/mL) 50° C.) was less than 10 mg/mL, the solubility ([2]; 50 °C, organic solvent or mixture, Table 14, MEK, 50° C., read-out: Solubility (mg/mL) 50° C.) was 22 to 25 mg/mL and the solubility ([2]; 50 °C, organic solvent or mixture, Table 14, MTBE, 50° C., read-out: Solubility (mg/mL) 50° C.) was less than 10 mg/mL. The solubility ([2]; 50 °C, organic solvent or mixture, Table 14, MeOH, 50° C., read-out: Solubility (mg/mL) 50° C.) was greater than 500 mg/mL, the solubility ([2]; 50 °C, organic solvent or mixture, Table 14, THF, 50° C., read-out: Solubility (mg/mL) 50° C.) was 250 to 500 mg/mL and the solubility ([2]; 50 °C, organic solvent or mixture, Table 14, Toluene, 50° C., read-out: Solubility (mg/mL) 50° C.) was less than 10 mg/mL. For the same compound, the solubility ([2]; 50 °C, water, Table 14, Water, 50° C., read-out: Solubility (mg/mL) 50° C.) was 22 to 25 mg/mL, the “D. (%) Cycle 1” value ([3]; 0% RH) was 0.49% and the “D. (%) Cycle 1” value ([3]; 10% RH) was 0.62%. The “D. (%) Cycle 1” value ([3]; 20% RH) was 0.71%, the “D. (%) Cycle 1” value ([3]; 30% RH) was 0.81% and the “D. (%) Cycle 1” value ([3]; 40% RH) was 0.93%. For the same compound, the “D. (%) Cycle 2” value ([3]; 0% RH) was 0.09%, the “D. (%) Cycle 2” value ([3]; 10% RH) was 0.15% and the “D. (%) Cycle 2” value ([3]; 20% RH) was 0.35%. For the same compound, the “D. (%) Cycle 2” value ([3]; 30% RH) was 0.47%, the “D. (%) Cycle 2” value ([3]; 40% RH) was 0.56% and the “D. (%) Cycle 2” value ([3]; 50% RH) was 0.67%. The “D. (%) Cycle 2” value ([3]; 60% RH) was 0.85%, the “D. (%) Cycle 2” value ([3]; 70% RH) was 1.04% and the “D. (%) Cycle 2” value ([3]; 80% RH) was 1.30%. The “D. (%) Cycle 2” value ([3]; 90% RH) was 1.84%, the “D. (%) Cycle 2” value ([3]; 95% RH) was 2.89% and the “S. (%) Cycle 1” value ([3]; 0% RH) was 0.49%. The “S. (%) Cycle 1” value ([3]; 10% RH) was 0.56%, the “S. (%) Cycle 1” value ([3]; 20% RH) was 0.66% and the “S. (%) Cycle 1” value ([3]; 30% RH) was 0.76%. For the same compound, the “S. (%) Cycle 1” value ([3]; 40% RH) was 0.86%, the “S. (%) Cycle 1” value ([3]; 50% RH) was 0.71% and the “S. (%) Cycle 1” value ([3]; 60% RH) was 0.85%. The “S. (%) Cycle 1” value ([3]; 70% RH) was 1.02%, the “S. (%) Cycle 1” value ([3]; 80% RH) was 1.27% and the “S. (%) Cycle 1” value ([3]; 90% RH) was 1.78%. For the same compound, the “S. (%) Cycle 1” value ([3]; 95% RH) was 2.89%, the “S. (%) Cycle 2” value ([3]; 0% RH) was 0.09% and the “S. (%) Cycle 2” value ([3]; 10% RH) was 0.18%. For the same compound, the “S. (%) Cycle 2” value ([3]; 20% RH) was 0.27%, the “S. (%) Cycle 2” value ([3]; 30% RH) was 0.37% and the “S. (%) Cycle 2” value ([3]; 40% RH) was 0.47%. For the same compound, the water uptake ([3]; up to 95% RH) was “about 2.9%”, the solubility at 0.5 h ([4]; pH 3, aqueous buffer) was greater than 2 mg/mL and the solubility at 2 h ([4]; pH 3, aqueous buffer) was greater than 2 mg/mL. For the same compound, the solubility at 0.5 h [4, 11] was greater than 2 mg/mL, the solubility at 2 h [4, 11] was greater than 2 mg/mL and the solubility at 0.5 h ([4]; pH 4.5, aqueous buffer) was greater than 2 mg/mL. For the same compound, the solubility at 2 h ([4]; pH 4.5, aqueous buffer) was greater than 2 mg/mL, the solubility at 0.5 h ([4]; pH 6.8, aqueous buffer) was greater than 2 mg/mL and the solubility at 2 h ([4]; pH 6.8, aqueous buffer) was greater than 2 mg/mL. The solubility at 0.5 h ([4]; water) was greater than 2 mg/mL, the solubility at 2 h ([4]; water) was greater than 2 mg/mL and the “pH of solution at 2 hrs” value ([4]; Simulated vaginal fluid (pH adjusted with 0.2N NaOH)) was “(5.39)”. The “pH of solution at 2 hrs” value ([4]; Water) was “(3.11)”, the “pH of solution at 2 hrs” value ([4]; pH 3.0 100 mM citrate buffer) was “(3.05)” and the “pH of solution at 2 hrs” value ([4]; pH 4.5 50 mM acetate buffer) was “(4.36)”. For the same compound, the “pH of solution at 2 hrs” value ([4]; pH 6.8 50 mM phosphate buffer) was “(6.49)”, the XRPD after storage ([5]; 25° C., 84% RH, open container, 2 days) was “No change” and the “HPLC (purity) after storage” value [5, 12] was 98.2%. The XRPD after storage [5, 12] was “No change”, the “HPLC (purity) after storage” value [5, 13] was 95.6% and the XRPD after storage [5, 13] was “No change”. The “HPLC (purity) after storage” value [5, 14] was 95.5%, the XRPD after storage [5, 14] was “No change” and the “HPLC (purity), Initial” value ([5]; initial, before storage) was 98.6%. For the same compound, the “degree of crystallinity on grinding (XRPD)” value [6, 15] was “crystallinity slightly decreased”, the “form transformation on grinding (XRPD)” value [6, 15] was “no form change was observed” and the “form transformation on granulation simulation (XRPD)” value ([6]; wetted with water or ethanol, ground 3 minutes, dried 10 min) was “neither in ethanol, nor in water form change was observed”.
